Assay results as given in patent US8809386B2, “Use of dynamin ring stabilizers” (Children's Medical Research Institute, priority 2009, dated 2014).

Molecular target: T1, full length dynamin I (UniProt Q05193)
T1 construct: rows headed: basal rate of GTP hydrolysis of dynamin
T1 sequence (Q05193 1-864): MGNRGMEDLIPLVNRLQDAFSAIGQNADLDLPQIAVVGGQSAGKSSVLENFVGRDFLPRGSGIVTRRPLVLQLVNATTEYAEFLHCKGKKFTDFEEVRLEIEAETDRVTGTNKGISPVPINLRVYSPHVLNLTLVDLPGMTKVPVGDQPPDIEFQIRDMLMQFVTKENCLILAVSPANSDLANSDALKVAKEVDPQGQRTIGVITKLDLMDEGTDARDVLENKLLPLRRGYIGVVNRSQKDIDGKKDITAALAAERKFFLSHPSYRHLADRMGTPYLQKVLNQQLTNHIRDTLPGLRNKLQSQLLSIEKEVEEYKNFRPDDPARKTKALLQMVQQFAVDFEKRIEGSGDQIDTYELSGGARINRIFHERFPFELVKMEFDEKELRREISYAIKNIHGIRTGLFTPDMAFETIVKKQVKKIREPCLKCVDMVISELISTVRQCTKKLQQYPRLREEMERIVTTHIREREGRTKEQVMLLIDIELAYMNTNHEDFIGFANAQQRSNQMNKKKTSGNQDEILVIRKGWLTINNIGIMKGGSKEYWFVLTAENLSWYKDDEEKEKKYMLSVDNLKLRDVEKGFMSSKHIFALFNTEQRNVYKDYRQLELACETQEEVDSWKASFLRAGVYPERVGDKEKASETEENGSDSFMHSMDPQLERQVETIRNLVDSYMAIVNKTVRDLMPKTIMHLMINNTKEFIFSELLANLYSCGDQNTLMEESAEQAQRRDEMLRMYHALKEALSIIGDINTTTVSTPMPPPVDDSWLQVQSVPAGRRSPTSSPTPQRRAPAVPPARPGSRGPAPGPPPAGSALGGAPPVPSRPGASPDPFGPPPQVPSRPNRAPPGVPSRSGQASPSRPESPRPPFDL
Test: Basal dynamin GTPase activity in the absence of PS liposomes or other template (ring stabilizer activity)
Type: biochemical, sheep
Conditions: 0.2 μM dyn1, 7 μM compound, 10 μM Gsn-F-actin complexes, FIG. 18

For `N#CC(=Cc1cc(O)c(O)c(O)c1)C(=O)NCCCNC(=O)C(C#N)=Cc1cc(O)c(O)c(O)c1` [Bis-T-23, 2-cyano-N-{3-[2-cyano-3-(3,4,5-trihydroxyphenyl)-acryloylamino]-propyl}-3-(3,4,5-trihydroxyphenyl)-acrylamide], the “basal rate of GTP hydrolysis of dynamin” value was “increased the rate of basal dynamin GTP hydrolysis to a similar level to addition of Gsn-F-actin complexes”.
